In assay [1] the test system is adult German cockroaches, Blattella germanica. Briefly: Direct application toxicity test, comparison of insecticides including BioUD 10 (Table 23). The format is in vivo. Particulars: 10 μL; adult female (F); individual cockroaches. How it is done:
Ten μL of BioUD™10, pure Undecanone, or Raid® were separately applied to the backs (thorax and wings) of adult German cockroaches, Blattella germanica. Insects were separately placed into FLUON®-treated diet cups (Vol.=30 mL, lower diam.=3 cm, height=4 cm) to prevent escape of treated specimens.

Assay [2] deals with Eastern subterranean termite, Reticulitermes flavipes. Nature of the assay: Termite direct application test (Example 20). The format is in vivo. The settings on record: 1 uL onto the back or thorax. How it is done:
In this test, in addition to water as a negative control, a positive control, in the form of the commercially available pesticide Raid® in also included. The method in this test simply involved pippetting 1 uL of the formulation onto the back or thorax of the Eastern subterranean termite, Reticulitermes flavipes, and recording the time to death. This test was performed on Mar. 13, 2007. The formulations used in the test were: (a) Raid®, a commercially available pesticide, (b) Undecanone, (c) BioUD™10, (d) BioUD™5, (e) Soy Methyl Ester (SME), and (f) water as a negative control.

“And” between values parts separate entries of the source, which are not always exact repeats. Equal entries are not always repeated.

Data on one compound can be found in patent US20080069785A1, “PEST-CONTROL COMPOSITIONS, AND METHODS AND PRODUCTS UTILIZING SAME” (priority 2004, published 2008).

In the case of `CCCCCCCCCC(C)=O` [Undecanone, 2-Undecanone], the Time-to-death in assay [1] was 47 s and 46 s and 1200 s and 57 s; in assay [2] (individual termite), 157 s and 389 s and 68 s and 174 s and 146 s. For the same compound, the “Time-to-death (sec), mean” value in assay [2] was 171.5 s.
